Results: PMC8537445, “D-Peptide-Based Probe for CXCR4-Targeted Molecular Imaging and Radionuclide Therapy” (Pharmaceutics, 2021)
Where two headings read alike, the source gives them in different places. Positions of bridges follow the written chain, without caps; N, C: chain ends. Non-standard residues stand in square brackets, D forms with d. Residues, ends and D or L forms follow the SMILES beside them. Groups on a side chain read outwards from the residue. Chains are numbered I, II in the order given. *: point of attachment. DOTA = O=C(O)CN1CCN(CC(=O)O)CCN(CC(=O)*)CCN(CC(=O)O)CC1; 2Nal = N[C@@H](Cc1ccc2ccccc2c1)C(=O)O; dNMeOrn = CN[C@H](CCCN)C(=O)O; 4Amb = NCc1ccc(C(=O)O)cc1

Tests used:
murine CXCR4 (mCXCR4) = biological target: T1, murine CXCR4 (mCXCR4) (Mus musculus, UniProt P70658); test: Competition binding with fluorescent murine CXCL12^AF647 on U87.mCXCR4 cells (flow cytometry)
T1 construct: expressed in transfected cells; host or cells: U87 human glioblastoma cells, stably transfected
Method: Competition binding studies (IC50) were performed as described using either Jurkat cells and human CXCL12^AF647 (Almac, UK) as fluorescent ligand or U87.mCXCR4 cells and murine CXCL12^AF647 (Almac, UK) as fluorescent ligand. […] IC50-values were calculated using nonlinear regression (four parameters) in GraphPad Prism 9 (Graph Pad Software, San Diego, CA, USA) based on three biological replicates for each concentration tested.

[1] = Stability of the peptide in standard labeling conditions (LC-HRMS); type: physicochemical; conditions: aqueous buffer pH 4, 1 h at 95 °C
Method: First, we successfully confirmed previously reported IC50-values of DV1, DV3 and DV1-k-(DV3) for hCXCR4 in an in vitro binding assay (Table 1) and we assessed the stability of the bivalent peptide DV1-k-(DV3) in standard labeling conditions (aqueous buffer pH 4, 1 h at 95 °C).

[2] = Ex vivo biodistribution in wild-type mice; conditions: mouse, total radioactivity, 75 min p.i., ex vivo gamma counting, mean ± SD
Method: The in vivo pharmacokinetics of the selected radioligands were first evaluated in wild-type mice by performing a whole-body biodistribution study. […] Blood and major organs were collected in tared tubes and weighed. Quantification of radioactivity in blood, organs, and other body parts was performed using an automated gamma counter equipped with a 3-inch NaI(Tl) well crystal coupled to a multichannel analyzer, mounted in a sample changer (2480 Wizard^2, Perkin Elmer, Waltham, MA, USA). Counts were corrected for background radiation, physical decay and counter dead time. Results are presented as standardized uptake values (SUV; tissue activity concentration (MBq/g)/[injected dose (MBq)/body weight (g)]).

in vivo = conditions: female, SCID (CB17.Cg-Prkdc<scid>Lyst<bg-J>/Crl), mouse, tumor, iv, total radioactivity
Method: The subcutaneous tumor xenograft model was prepared using a published procedure [21]. Briefly, 1 × 10^6 U87.hCXCR4 cells mixed with Cultrex (1:1; Cultrex Basement Membrane Extract, R&D systems, Minneapolis, MN, USA) were implanted subcutaneously into the right shoulder of female 10-week-old SCID mice (CB17.Cg-PrkdcLyst<bg-J>/Crl; Charles River Laboratories, Sulzfeld, Germany). After an average of four weeks, the animals were used in biodistribution and PET/computed tomography (CT) imaging studies. Tumor volumes ranged from 150–574 mm^3 (measured by caliper, h × l × w), while the tumor mass-to-body weight ratio was 0.14–2.34%.
Dynamic PET images were acquired for 60 min immediately after intravenous injection using a beta-cube PET scanner (Molecubes, Gent, Belgium). The mice were kept under gas anesthesia during the entire procedure (2.5% isoflurane in O2 at 1 L/min flow rate), with temperature and respiration monitored throughout. […]
PET data were histogrammed into 14 frames (4 × 15 s, 4 × 1 min, 1 × 5 min, 5 × 10 min) and reconstructed into a 192 × 192 image matrix with 0.4 mm voxels using 30 iterations the native MLEM algorithm with corrections for randoms, scatter, attenuation and decay. […] Radiotracer uptake at 60 min, expressed as SUVmean, was the outcome measure.

[3] = biological target: T2, hCXCR4-expressing U87 cells (U87.hCXCR4) (Homo sapiens, UniProt P61073); test: Binding and internalization assay on U87.hCXCR4 cells; type: cell-based; conditions: AMD3100 100 µM
T2 construct: expressed in transfected cells; host or cells: U87 human glioblastoma cells, stably transfected
Method: Cellular uptake and internalization of [^18F]AlF-NOTA-DV1-k-(DV3), [^68Ga]Ga-DOTA-DV1-k-(DV3) and [^177Lu]Lu-DOTA-DV1-k-(DV3) (11, 17 and 7 nM respectively) into U87.hCXCR4 cells (2.5 × 10^5 cells) were investigated and compared with [^68Ga]PentixaFor (6 nM) as control. […] After incubation, the supernatant was removed and combined with 3 mL of ice-cold PBS used for rinsing the cells (unbound fraction). Subsequently, cells were incubated twice with 50 mM Glycine-HCl pH 2.8 for 5 min at room temperature, followed by one washing step with ice-cold PBS (membrane-bound fraction). Then, cells were lysed using 350 µL of reagent A100 (Chemometec, Allerod, Denmark). Reagent B (Chemometec, Allerod, Denmark) was used for rinsing the wells and to quench the lysing of the cells. Quantification of the amount of bound and internalized activity was performed using an automated gamma counter. The number of cells per well was counted using an automated counting device (NucleoCounter® NC-100™, Chemometec, Allerod, Denmark). Results were expressed as percentage of applied radioactivity bound to 2.5 × 10^5 cells.

[4] = Stability in human serum (radioHPLC); type: in vitro ADME; conditions: male, human serum (H4522 human male AB plasma), 5-fold dilution in human serum, 9 days at 37 °C, read-out: intact radioligand in human serum
Method: Formulated solutions of [^18F]AlF-NOTA-DV1-k-(DV3) and [^68Ga]Ga-DOTA-DV1-k-(DV3) were evaluated by radioHPLC 5 h and 2 h after radiosynthesis, respectively. In addition, 5-fold dilutions in human serum (H4522 human male AB plasma, USA origin, sterile-filtered, Sigma Aldrich, Saint Louis, MO, USA) were incubated at 37 °C for 2 h and analyzed using radioHPLC.
A formulated solution of [^177Lu]Lu-DOTA-DV1-k-(DV3) was evaluated by radioHPLC after 9 days of storage at 4 °C. A 5-fold dilution of [^177Lu]Lu-DOTA-DV1-k-(DV3) in human serum (H4522 human male AB plasma, USA origin, sterile-filtered, Sigma Aldrich, Saint Louis, MO, USA) was incubated at 37 °C for 9 days and analyzed by radioHPLC.

T1 sequence (P70658 whole entry): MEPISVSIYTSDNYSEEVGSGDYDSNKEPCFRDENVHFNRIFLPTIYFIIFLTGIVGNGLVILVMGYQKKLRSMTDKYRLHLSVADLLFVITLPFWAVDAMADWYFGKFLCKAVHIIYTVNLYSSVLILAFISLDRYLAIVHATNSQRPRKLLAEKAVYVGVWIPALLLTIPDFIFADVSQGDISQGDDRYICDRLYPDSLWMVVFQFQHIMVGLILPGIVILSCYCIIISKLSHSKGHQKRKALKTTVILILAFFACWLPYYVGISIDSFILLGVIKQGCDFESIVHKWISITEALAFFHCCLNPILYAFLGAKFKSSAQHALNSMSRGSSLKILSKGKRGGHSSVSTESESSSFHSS
T2 sequence (P61073 whole entry): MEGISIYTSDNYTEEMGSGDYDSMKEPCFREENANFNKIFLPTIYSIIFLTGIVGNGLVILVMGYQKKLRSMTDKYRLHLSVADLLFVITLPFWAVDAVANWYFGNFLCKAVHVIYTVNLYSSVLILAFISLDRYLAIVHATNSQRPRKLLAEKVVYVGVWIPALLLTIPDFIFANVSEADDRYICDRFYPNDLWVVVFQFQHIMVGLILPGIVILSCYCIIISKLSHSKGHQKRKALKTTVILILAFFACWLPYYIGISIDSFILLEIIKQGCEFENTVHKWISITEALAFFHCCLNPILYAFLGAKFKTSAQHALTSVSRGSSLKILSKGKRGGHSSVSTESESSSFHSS

With `c1cc(CN2CCCNCCNCCCNCC2)ccc1CN1CCCNCCNCCCNCC1` [AMD3100] the IC50 (murine CXCR4 (mCXCR4); murine CXCL12^AF647 as fluorescent ligand, mean ± SD, n = 3, read-out: IC50 [nM] to mCXCR4) was 123 ± 17 nM.

For `CC(C)C[C@@H](N)C(=O)NCC(=O)N[C@H](C)C(=O)N[C@H](CO)C(=O)N[C@H](Cc1c[nH]c2ccccc12)C(=O)N[C@H](Cc1c[nH]cn1)C(=O)N[C@H](CCCNC(=N)N)C(=O)N1CCC[C@@H]1C(=O)N[C@H](CC(=O)O)C(=O)N[C@H](CCCCN)C(=O)NCCCC[C@@H](NC(=O)[C@H]1CCCN1C(=O)[C@@H](CC(C)C)NC(=O)[C@H]1CCCN1C(=O)[C@@H](CCCNC(=N)N)NC(=O)[C@@H](CCCCN)NC(=O)[C@@H](CCC(N)=O)NC(=O)[C@@H](Cc1ccc(O)cc1)NC(=O)CNC(=O)[C@@H](CC(C)C)NC(=O)[C@@H](CS)NC(=O)[C@@H](CS)NC(=O)[C@@H](CCCCN)NC(=O)[C@@H](CC(=O)O)NC(=O)[C@H]1CCCN1C(=O)[C@@H](CCCNC(=N)N)NC(=O)[C@@H](Cc1c[nH]cn1)NC(=O)[C@@H](Cc1c[nH]c2ccccc12)NC(=O)[C@@H](CO)NC(=O)[C@@H](C)NC(=O)CNC(=O)[C@H](N)CC(C)C)C(=O)O` [DV1-k-(DV3)] (I: H-[dL]G[dA][dS][dW][dH][dR][dP][dD][dK][dC][dC][dL]G[dY][dQ][dK][dR][dP][dL][dP][dK]-OH / II: H-[dL]G[dA][dS][dW][dH][dR][dP][dD][dK]; amide I:22-II:C), the “stability in standard labeling conditions” value [1] was “No degradation products were detected”.

With `CN1C(=O)[C@@H](Cc2ccc(O)cc2)NC(=O)CNC(=O)[C@H](Cc2ccc3ccccc3c2)NC(=O)[C@H](CCCNC(=N)N)NC(=O)[C@H]1CCCNC(=O)c1ccc(CNC(=O)CN2CCN(CC(=O)O)CCN(CC(=O)O)CCN(CC(=O)O)CC2)cc1` [[^68Ga]PentixaFor, metal not drawn] (cyclo([dY][dNMeOrn]([4Amb-DOTA])R[2Nal]G)) the SUV at 1.25 h ([2]; blood, + AMD3100 5 mg/kg, n: PentixaFor 1, 18F 2, 68Ga 4, 177Lu 3, read-out: blood uptake) was 0.5 SUV, the SUV at 1.25 h ([2]; blood, tracer alone, n: PentixaFor 3, 18F 5, 68Ga 4, 177Lu 3, read-out: blood uptake) was 0.6 ± 0.1 SUV and the SUV at 1.25 h ([2]; bone (femur harboring bone marrow), tracer alone, n: PentixaFor 3, 18F 5, 68Ga 4, 177Lu 3, read-out: bone uptake (femur harboring bone marrow)) was 0.2 ± 0.01 SUV. For the same compound, the SUV at 1.25 h ([2]; brain, + AMD3100 5 mg/kg, n: PentixaFor 1, 18F 2, 68Ga 4, 177Lu 3, read-out: brain uptake) was 0.02 SUV, the SUV at 1.25 h ([2]; brain, tracer alone, n: PentixaFor 3, 18F 5, 68Ga 4, 177Lu 3, read-out: brain uptake) was 0.03 ± 0.01 SUV and the SUV at 1.25 h ([2]; heart, + AMD3100 5 mg/kg, n: PentixaFor 1, 18F 2, 68Ga 4, 177Lu 3, read-out: heart uptake) was 0.3 SUV. The SUV at 1.25 h ([2]; heart, tracer alone, n: PentixaFor 3, 18F 5, 68Ga 4, 177Lu 3, read-out: heart uptake) was 0.3 ± 0.02 SUV, the SUV at 1.25 h ([2]; kidneys, tracer alone, n: PentixaFor 3, 18F 5, 68Ga 4, 177Lu 3, read-out: kidneys uptake) was 1.9 ± 1.1 SUV and the SUV at 1.25 h ([2]; liver, + AMD3100 5 mg/kg, n: PentixaFor 1, 18F 2, 68Ga 4, 177Lu 3, read-out: liver uptake) was 0.5 SUV. For the same compound, the SUV at 1.25 h ([2]; liver, tracer alone, n: PentixaFor 3, 18F 5, 68Ga 4, 177Lu 3, read-out: liver uptake) was 0.6 ± 0.1 SUV, the SUV at 1.25 h ([2]; lungs, + AMD3100 5 mg/kg, n: PentixaFor 1, 18F 2, 68Ga 4, 177Lu 3, read-out: lungs uptake) was 0.7 SUV and the SUV at 1.25 h ([2]; lungs, tracer alone, n: PentixaFor 3, 18F 5, 68Ga 4, 177Lu 3, read-out: lungs uptake) was 0.7 ± 0.1 SUV. For the same compound, the SUV at 1.25 h ([2]; muscle, + AMD3100 5 mg/kg, n: PentixaFor 1, 18F 2, 68Ga 4, 177Lu 3, read-out: muscle uptake) was 0.2 SUV, the SUV at 1.25 h ([2]; muscle, tracer alone, n: PentixaFor 3, 18F 5, 68Ga 4, 177Lu 3, read-out: muscle uptake) was 0.2 ± 0.03 SUV and the SUV at 1.25 h ([2]; pancreas, + AMD3100 5 mg/kg, n: PentixaFor 1, 18F 2, 68Ga 4, 177Lu 3, read-out: pancreas uptake) was 0.3 SUV. It also gave an SUV at 1.25 h ([2]; pancreas, tracer alone, n: PentixaFor 3, 18F 5, 68Ga 4, 177Lu 3, read-out: pancreas uptake) of 0.3 ± 0.1 SUV, an SUV at 1.25 h ([2]; spleen, + AMD3100 5 mg/kg, n: PentixaFor 1, 18F 2, 68Ga 4, 177Lu 3, read-out: spleen uptake) of 0.3 SUV and an SUV at 1.25 h ([2]; spleen, tracer alone, n: PentixaFor 3, 18F 5, 68Ga 4, 177Lu 3, read-out: spleen uptake) of 0.3 ± 0.02 SUV. The SUV at 1 h (in vivo) was 2.9 SUV and the “blocking of cellular uptake by excess AMD3100” value [3] was “completely blocked”.

With `CC(C)C[C@@H](N)C(=O)NCC(=O)N[C@H](C)C(=O)N[C@H](CO)C(=O)N[C@H](Cc1c[nH]c2ccccc12)C(=O)N[C@H](Cc1c[nH]cn1)C(=O)N[C@H](CCCNC(=N)N)C(=O)N1CCC[C@@H]1C(=O)N[C@H](CC(=O)O)C(=O)N[C@H](CCCCNC(=O)CN1CCN(CC(=O)O)CCN(CC(=O)O)CCN(CC(=O)O)CC1)C(=O)NCCCC[C@@H](NC(=O)[C@H]1CCCN1C(=O)[C@@H](CC(C)C)NC(=O)[C@H]1CCCN1C(=O)[C@@H](CCCNC(=N)N)NC(=O)[C@@H](CCCCN)NC(=O)[C@@H](CCC(N)=O)NC(=O)[C@@H](Cc1ccc(O)cc1)NC(=O)CNC(=O)[C@@H](CC(C)C)NC(=O)[C@@H](CS)NC(=O)[C@@H](CS)NC(=O)[C@@H](CCCCN)NC(=O)[C@@H](CC(=O)O)NC(=O)[C@H]1CCCN1C(=O)[C@@H](CCCNC(=N)N)NC(=O)[C@@H](Cc1c[nH]cn1)NC(=O)[C@@H](Cc1c[nH]c2ccccc12)NC(=O)[C@@H](CO)NC(=O)[C@@H](C)NC(=O)CNC(=O)[C@H](N)CC(C)C)C(=O)O` [[^177Lu]Lu-DOTA-DV1-k-(DV3), metal not drawn] (I: H-[dL]G[dA][dS][dW][dH][dR][dP][dD][dK][dC][dC][dL]G[dY][dQ][dK][dR][dP][dL][dP][dK]-OH / II: H-[dL]G[dA][dS][dW][dH][dR][dP][dD][dK](DOTA); amide I:22-II:C) the remaining at 216 h [4] was > 98%.

For `CN1C(=O)[C@@H](Cc2ccc(O)cc2)NC(=O)CNC(=O)[C@H](Cc2ccc3ccccc3c2)NC(=O)[C@H](CCCNC(=N)N)NC(=O)[C@H]1CCCNC(=O)c1ccc(CNC(=O)CN2CCN(CC(=O)O)CCN(CC(=O)O)CCN(CC(=O)O)CC2)cc1` [[^natGa]PentixaFor, metal not drawn] (cyclo([dY][dNMeOrn]([4Amb-DOTA])R[2Nal]G)), the IC50 (murine CXCR4 (mCXCR4); read-out: IC50 [nM] to mCXCR4, murine CXCL12^AF647 as fluorescent ligand, mean ± SD, n = 3) was > 1000 nM.
